{"source": "patent EP0007672A1", "about": "“Isocyanoalkenes, process and useful intermediates for their preparation, pharmaceutical and fungicidal preparations containing those isocyanoalkenes and the use of the fungicidal preparations in agriculture” (GIST-BROCADES N.V., priority 1978, dated 1980)", "assay_in_all_cases": "MIC (Minimum Inhibitory Concentration)", "assay_type_in_all_cases": "cell-based", "key": {"[1]": {"tested_on": "Candida albicans"}, "[2]": {"tested_on": "Fusarium (bulb)", "settings": "Fusarium (bulb) A 3252"}, "[3]": {"tested_on": "Fusarium (tulip)", "settings": "Fusarium (tulip) A 3253"}, "[4]": {"tested_on": "Fusarium solani", "settings": "read-out: MIC values"}, "[5]": {"tested_on": "Rhizoctonia solani", "settings": "read-out: MIC values"}, "[6]": {"tested_on": "Trichophyton equinum"}, "[7]": {"tested_on": "Trichophyton mentagrophytus"}, "[8]": {"tested_on": "Trichophyton quickeaneum", "settings": "read-out: MIC values"}, "[9]": {"tested_on": "Trichophyton rubrum"}, "[10]": {"tested_on": "Trichophyton schoenleinii", "settings": "read-out: MIC values"}, "[11]": {"tested_on": "Trichophyton soudanese joyeux", "settings": "read-out: MIC values"}, "[12]": {"tested_on": "Trichophyton violoceum", "settings": "read-out: MIC values"}}, "note": "Like-named read-outs stand apart in the source and are kept apart here."}
{"smiles": "[C-]#[N+]C(=Cc1ccccc1)S(=O)(=O)c1ccc(C)cc1", "note": "[Example 1, 1-isocyano-2-phenyl-1-(4-toluenesulphonyl)-ethene]", "values": [{"measurement": "MIC", "setting": "[1]; Candida albicans A 7, read-out: MIC values", "result": 1.5, "unit": "µg/mL"}, {"measurement": "MIC", "setting": "[1]; Candida albicans A 3140, read-out: MIC values", "result": 12.5, "unit": "µg/mL"}, {"measurement": "MIC", "setting": "[1]; Candida albicans A 3141, read-out: MIC values", "result": 12.5, "unit": "µg/mL"}, {"measurement": "MIC", "setting": "[1]; Candida albicans A 3142, read-out: MIC values", "result": 12.5, "unit": "µg/mL"}, {"measurement": "MIC", "setting": "[1]; Candida albicans A 3143, read-out: MIC values", "result": 12.5, "unit": "µg/mL"}, {"measurement": "MIC", "setting": "[1]; Candida albicans A 3144, read-out: MIC values", "result": 12.5, "unit": "µg/mL"}, {"measurement": "MIC", "setting": "[1]; Candida albicans A 3145, read-out: MIC values", "result": 12.5, "unit": "µg/mL"}, {"measurement": "MIC", "setting": "[1]; Candida albicans A 3165, read-out: MIC values", "result": 25, "unit": "µg/mL"}, {"measurement": "MIC", "setting": "[1]; Candida albicans A 3166, read-out: MIC values", "result": 12.5, "unit": "µg/mL"}, {"measurement": "MIC", "setting": "[1]; Candida albicans A 3167, read-out: MIC values", "result": 25, "unit": "µg/mL"}, {"measurement": "MIC", "setting": "[1]; Candida albicans A 3168, read-out: MIC values", "result": 12.5, "unit": "µg/mL"}, {"measurement": "MIC", "setting": "[1]; Candida albicans A 3169, read-out: MIC values", "result": 12.5, "unit": "µg/mL"}, {"measurement": "MIC", "setting": "[1]; Candida albicans A 3171, read-out: MIC values", "result": 12.5, "unit": "µg/mL"}, {"measurement": "MIC", "setting": "[1]; Candida albicans A 3184, read-out: MIC values", "result": 12.5, "unit": "µg/mL"}, {"measurement": "MIC", "setting": "[1]; Candida albicans A 3190, read-out: MIC values", "result": 6, "unit": "µg/mL"}, {"measurement": "MIC", "setting": "[1]; Candida albicans A 3191, read-out: MIC values", "result": 12.5, "unit": "µg/mL"}, {"measurement": "MIC", "setting": "[1]; Candida albicans A 3192, read-out: MIC values", "result": 6, "unit": "µg/mL"}, {"measurement": "MIC", "setting": "[1]; Candida albicans A 3194, read-out: MIC values", "result": 25, "unit": "µg/mL"}, {"measurement": "MIC", "setting": "[1]; Candida albicans A 3196, read-out: MIC values", "result": 12.5, "unit": "µg/mL"}, {"measurement": "MIC", "setting": "[2]", "result": "> 100", "unit": "µg/mL"}, {"measurement": "MIC", "setting": "[3]", "result": 50, "unit": "µg/mL"}, {"measurement": "MIC", "setting": "[4]; Fusarium solani A 3245", "result": 50, "unit": "µg/mL"}, {"measurement": "MIC", "setting": "[5]; Rhizoctonia solani 200-25", "result": 4.5, "unit": "µg/mL"}, {"measurement": "MIC", "setting": "[6]; Trichophyton equinum 182-76, read-out: MIC values", "result": 3, "unit": "µg/mL"}, {"measurement": "MIC", "setting": "[6]; Trichophyton equinum 856-71, read-out: MIC values", "result": 3, "unit": "µg/mL"}, {"measurement": "MIC", "setting": "[7]; Trichophyton mentagrophytus 367-68, read-out: MIC values", "result": 1.5, "unit": "µg/mL"}, {"measurement": "MIC", "setting": "[7]; Trichophyton mentagrophytus 421-67, read-out: MIC values", "result": 1.5, "unit": "µg/mL"}, {"measurement": "MIC", "setting": "[7]; Trichophyton mentagrophytus A 3252, read-out: MIC values", "result": 1.5, "unit": "µg/mL"}, {"measurement": "MIC", "setting": "[7]; Trichophyton mentagrophytus R 177, read-out: MIC values", "result": 6, "unit": "µg/mL"}, {"measurement": "MIC", "setting": "[7]; Trichophyton mentagrophytus R 178, read-out: MIC values", "result": "> 100", "unit": "µg/mL"}, {"measurement": "MIC", "setting": "[7]; Trichophyton mentagrophytus RRL 305, read-out: MIC values", "result": 6, "unit": "µg/mL"}, {"measurement": "MIC", "setting": "[8]; Trichophyton quickeaneum A 2040", "result": 3, "unit": "µg/mL"}, {"measurement": "MIC", "setting": "[9]; Trichophyton rubrum 494-62, read-out: MIC values", "result": 0.1, "unit": "µg/mL"}, {"measurement": "MIC", "setting": "[10]; Trichophyton schoenleinii 435-63", "result": 0.1, "unit": "µg/mL"}, {"measurement": "MIC", "setting": "[11]; Trichophyton soudanese joyeux 440-63", "result": 12.5, "unit": "µg/mL"}, {"measurement": "MIC", "setting": "[12]; Trichophyton violoceum 442-62", "result": 0.1, "unit": "µg/mL"}]}
{"smiles": "[C-]#[N+]C(=C1CCCCC1)S(=O)(=O)c1ccc(C)cc1", "note": "[Example 7, a-cyclohexylidene-a-(4-toluenesulphonyl)-methylisocyanide]", "values": [{"measurement": "MIC", "setting": "[1]; read-out: MIC values, Candida albicans A 7", "result": 0.8, "unit": "µg/mL"}, {"measurement": "MIC", "setting": "[1]; read-out: MIC values, Candida albicans A 3140", "result": 3, "unit": "µg/mL"}, {"measurement": "MIC", "setting": "[1]; read-out: MIC values, Candida albicans A 3141", "result": 12.5, "unit": "µg/mL"}, {"measurement": "MIC", "setting": "[1]; read-out: MIC values, Candida albicans A 3142", "result": 12.5, "unit": "µg/mL"}, {"measurement": "MIC", "setting": "[1]; read-out: MIC values, Candida albicans A 3143", "result": 6, "unit": "µg/mL"}, {"measurement": "MIC", "setting": "[1]; read-out: MIC values, Candida albicans A 3144", "result": 6, "unit": "µg/mL"}, {"measurement": "MIC", "setting": "[1]; read-out: MIC values, Candida albicans A 3145", "result": 6, "unit": "µg/mL"}, {"measurement": "MIC", "setting": "[1]; read-out: MIC values, Candida albicans A 3165", "result": 6, "unit": "µg/mL"}, {"measurement": "MIC", "setting": "[1]; read-out: MIC values, Candida albicans A 3166", "result": 6, "unit": "µg/mL"}, {"measurement": "MIC", "setting": "[1]; read-out: MIC values, Candida albicans A 3167", "result": 6, "unit": "µg/mL"}, {"measurement": "MIC", "setting": "[1]; read-out: MIC values, Candida albicans A 3168", "result": 6, "unit": "µg/mL"}, {"measurement": "MIC", "setting": "[1]; read-out: MIC values, Candida albicans A 3169", "result": 6, "unit": "µg/mL"}, {"measurement": "MIC", "setting": "[1]; read-out: MIC values, Candida albicans A 3171", "result": 6, "unit": "µg/mL"}, {"measurement": "MIC", "setting": "[1]; read-out: MIC values, Candida albicans A 3184", "result": 3, "unit": "µg/mL"}, {"measurement": "MIC", "setting": "[1]; read-out: MIC values, Candida albicans A 3190", "result": 3, "unit": "µg/mL"}, {"measurement": "MIC", "setting": "[1]; read-out: MIC values, Candida albicans A 3191", "result": 6, "unit": "µg/mL"}, {"measurement": "MIC", "setting": "[1]; read-out: MIC values, Candida albicans A 3192", "result": 6, "unit": "µg/mL"}, {"measurement": "MIC", "setting": "[1]; read-out: MIC values, Candida albicans A 3194", "result": 6, "unit": "µg/mL"}, {"measurement": "MIC", "setting": "[1]; read-out: MIC values, Candida albicans A 3196", "result": 12.5, "unit": "µg/mL"}, {"measurement": "MIC", "setting": "[2]", "result": 18.8, "unit": "µg/mL"}, {"measurement": "MIC", "setting": "[3]", "result": 12.5, "unit": "µg/mL"}, {"measurement": "MIC", "setting": "[4]; Fusarium solani", "result": 12.5, "unit": "µg/mL"}, {"measurement": "MIC", "setting": "[5]; Rhizoctonia solani", "result": 1.5, "unit": "µg/mL"}, {"measurement": "MIC", "setting": "[6]; read-out: MIC values, Trichophyton equinum 182-76", "result": 3, "unit": "µg/mL"}, {"measurement": "MIC", "setting": "[6]; read-out: MIC values, Trichophyton equinum 856-71", "result": 3, "unit": "µg/mL"}, {"measurement": "MIC", "setting": "[7]; read-out: MIC values, Trichophyton mentagrophytus 367-68", "result": 0.8, "unit": "µg/mL"}, {"measurement": "MIC", "setting": "[7]; read-out: MIC values, Trichophyton mentagrophytus 421-67", "result": 1.5, "unit": "µg/mL"}, {"measurement": "MIC", "setting": "[7]; read-out: MIC values, Trichophyton mentagrophytus A 3252", "result": 0.8, "unit": "µg/mL"}, {"measurement": "MIC", "setting": "[7]; read-out: MIC values, Trichophyton mentagrophytus R 177", "result": 3, "unit": "µg/mL"}, {"measurement": "MIC", "setting": "[7]; read-out: MIC values, Trichophyton mentagrophytus R 178", "result": 12.5, "unit": "µg/mL"}, {"measurement": "MIC", "setting": "[7]; read-out: MIC values, Trichophyton mentagrophytus RRL 305", "result": 1.5, "unit": "µg/mL"}, {"measurement": "MIC", "setting": "[8]; Trichophyton", "result": 0.8, "unit": "µg/mL"}, {"measurement": "MIC", "setting": "[9]; read-out: MIC values, Trichophyton rubrum 494-62", "result": 0.8, "unit": "µg/mL"}, {"measurement": "MIC", "setting": "[9]; read-out: MIC values, Trichophyton rubrum A 810", "result": 0.8, "unit": "µg/mL"}, {"measurement": "MIC", "setting": "[10]; Trichophyton schoenleinii", "result": 0.2, "unit": "µg/mL"}, {"measurement": "MIC", "setting": "[11]; Trichophyton", "result": 12.5, "unit": "µg/mL"}, {"measurement": "MIC", "setting": "[12]; Trichophyton", "result": 0.2, "unit": "µg/mL"}]}
